From article PMC11620503 (Antimicrobial Agents and Chemotherapy, 2024)
Converted amounts (≈) assume the structure as drawn. Read-outs that look alike come from different tables or passages of the source.

Assays:
[1] = tested on: Klebsiella aerogenes NCTC 10006 (ATCC 13048); assay: MIC, reference strains of aerobic bacteria; assay type: cell-based
[2] = tested on: Acinetobacter baumannii ATCC 19606; assay: MIC, reference strains of aerobic bacteria; assay type: cell-based; conditions: ATCC19606
[3] = tested on: E. coli CDC-119 (NDM-1), PBP3 mutations; assay: MIC, broth microdilution; assay type: cell-based; conditions: Escherichia coli
[4] = tested on: E. coli CDC-151 (NDM-5), PBP3 mutations; assay: MIC, broth microdilution; assay type: cell-based; conditions: Escherichia coli, fixed BLI concentration (μg/mL) in parentheses in label
[5] = tested on: Proteus mirabilis NBRC 3849 (NCTC 6197); assay: MIC, reference strains of aerobic bacteria; assay type: cell-based
[6] = tested on: Acinetobacter calcoaceticus NBRC12552 (ATCC 14987); assay: MIC, reference strains of aerobic bacteria; assay type: cell-based
[7] = tested on: Staphylococcus lugdunensis KUB4804; assay: MIC, reference strains of aerobic bacteria; assay type: cell-based
[8] = tested on: MBL-producing isolates (Enterobacterales); assay: MIC, broth microdilution; assay type: cell-based; conditions: for MIC50 / MIC90: fixed concentration (μg/mL) in label; for MIC50: read-out: MIC50; for MIC90: read-out: MIC90
[9] = tested on: Staphylococcus saprophyticus KUB4845; assay: MIC, reference strains of aerobic bacteria; assay type: cell-based
[10] = tested on: Staphylococcus epidermidis KUB4862/methicillin-resistant; assay: MIC, reference strains of aerobic bacteria; assay type: cell-based
[11] = tested on: Streptococcus porcinus ATCC 12391; assay: MIC, reference strains of aerobic bacteria; assay type: cell-based; conditions: ATCC12391
[12] = tested on: E. coli CDC-435 (NDM-1), PBP3 mutations; assay: MIC, broth microdilution; assay type: cell-based; conditions: Escherichia coli, fixed BLI concentration (μg/mL) in parentheses in label
[13] = cited from earlier work
96 P. aeruginosa = assay: MIC, broth microdilution; assay type: cell-based, Pseudomonas aeruginosa
[14] = tested on: Enterobacter cloacae NBRC 13535 (ATCC 13047); assay: MIC, reference strains of aerobic bacteria; assay type: cell-based
[15] = tested on: Enterococcus faecium NCTC 12204; assay: MIC, reference strains of aerobic bacteria; assay type: cell-based; conditions: NCTC12204
[16] = tested on: Staphylococcus aureus KUB4690/methicillin-resistant; assay: MIC, reference strains of aerobic bacteria; assay type: cell-based
[17] = tested on: Streptococcus mitis GTC495 (ATCC 49456); assay: MIC, reference strains of aerobic bacteria; assay type: cell-based; conditions: ATCC49456
[18] = tested on: MEM-nonsusceptible Enterobacterales; assay: MIC, broth microdilution; assay type: cell-based; conditions: for CLSI MIC interpretation I (intermediate) / CLSI MIC interpretation R (resistant) / CLSI MIC interpretation S (susceptible): CLSI breakpoints, marked c: breakpoints for β-lactam alone; for MIC50 / MIC90: fixed concentration (μg/mL) in label
[19] = tested on: Moraxella catarrhalis ATCC 25238; assay: MIC, reference strains of aerobic bacteria; assay type: cell-based; conditions: ATCC25238
[20] = tested on: Stenotrophomonas maltophilia KUB3619; assay: MIC, reference strains of aerobic bacteria; assay type: cell-based
[21] = tested on: E. coli CDC-149 (NDM-7), PBP3 mutations; assay: MIC, broth microdilution; assay type: cell-based; conditions: Escherichia coli
[22] = tested on: MEM-nonsusceptible Enterobacterales with serine-carbapenemases; assay: MIC, broth microdilution; assay type: cell-based; conditions: for CLSI MIC interpretation I (intermediate) / CLSI MIC interpretation R (resistant) / CLSI MIC interpretation S (susceptible): CLSI breakpoints, marked c: breakpoints for β-lactam alone; for MIC50 / MIC90: fixed concentration (μg/mL) in label
[23] = tested on: E. coli CDC-162 (NDM-7), PBP3 mutations; assay: MIC, broth microdilution; assay type: cell-based; conditions: Escherichia coli
[24] = tested on: MEM-nonsusceptible Enterobacterales with metallo-carbapenemases; assay: MIC, broth microdilution; assay type: cell-based; conditions: for CLSI MIC interpretation I (intermediate) / CLSI MIC interpretation R (resistant) / CLSI MIC interpretation S (susceptible): CLSI breakpoints, marked c: breakpoints for β-lactam alone; for MIC50 / MIC90: fixed concentration (μg/mL) in label
[25] = tested on: Streptococcus pneumoniae ATCC 49619; assay: MIC, reference strains of aerobic bacteria; assay type: cell-based; conditions: ATCC49619
[26] = tested on: Klebsiella oxytoca KUB4313; assay: MIC, reference strains of aerobic bacteria; assay type: cell-based
[27] = tested on: Streptococcus salivarius GTC215; assay: MIC, reference strains of aerobic bacteria; assay type: cell-based
[28] = tested on: 207 Enterobacterales including carbapenem-resistant isolates; assay: MIC, broth microdilution; assay type: cell-based
[29] = tested on: Providencia rettgeri ATCC 9250; assay: MIC, reference strains of aerobic bacteria; assay type: cell-based; conditions: ATCC9250
[30] = tested on: Staphylococcus epidermidis KUB4871/methicillin-sensitive; assay: MIC, reference strains of aerobic bacteria; assay type: cell-based
[31] = Enterobacterales with metallo-carbapenemases (47), CDC AR Bank, CLSI breakpoints, marked c: breakpoints for β-lactam alone
[32] = Enterobacterales with metallo-carbapenemases (47), CDC AR Bank
[33] = Enterobacterales with metallo-carbapenemases (74), cefiderocol 73 isolates, CLSI breakpoints, marked c: breakpoints for β-lactam alone, tigecycline: FDA breakpoints
[34] = Enterobacterales with metallo-carbapenemases (74), cefiderocol 73 isolates
[35] = Pseudomonas aeruginosa (96), CLSI breakpoints, marked c: breakpoints for β-lactam alone
[36] = MEM-nonsusceptible Enterobacterales (92), CDC AR Bank
[37] = MEM-nonsusceptible Enterobacterales (127), cefiderocol 126 isolates, tigecycline: FDA breakpoints
[38] = MEM-nonsusceptible Enterobacterales with serine-carbapenemases (42), CDC AR Bank
[39] = MEM-nonsusceptible Enterobacterales with serine-carbapenemases (58), tigecycline: FDA breakpoints
[40] = MEM-nonsusceptible Enterobacterales with metallo-carbapenemases (41), CDC AR Bank
[41] = MEM-nonsusceptible Enterobacterales with metallo-carbapenemases (55), cefiderocol 54 isolates, tigecycline: FDA breakpoints
[42] = All Enterobacterales (207), cefiderocol 205 isolates, CLSI breakpoints, marked c: breakpoints for β-lactam alone, tigecycline: FDA breakpoints
[43] = All Enterobacterales (207), cefiderocol 205 isolates, fixed concentration (μg/mL) in label

## C[C@@H](O)[C@H]1C(=O)N2C(C(=O)O)=C(S[C@@H]3CN[C@H](C(=O)N(C)C)C3)[C@H](C)[C@H]12 [MEM, meropenem]
[1]
  MIC: ≤ 0.03 µg/mL
[2]
  MIC: 0.5 µg/mL (≈ 1.3 µM)
[3]
  MIC: 32 µg/mL (≈ 83.4 µM)
[4]
  MIC: 8 µg/mL (≈ 20.9 µM)
[5]
  MIC: ≤ 0.03 µg/mL
[6]
  MIC: 0.12 µg/mL (≈ 0.313 µM)
[7]
  MIC: 0.12 µg/mL (≈ 0.313 µM)
[8]; [31]
  CLSI MIC interpretation I (intermediate): 10.6%
  CLSI MIC interpretation R (resistant): 76.6%
[8]; [32]
  MIC50: 16 µg/mL (≈ 41.7 µM)
  MIC90: > 32 µg/mL
[8]; [33]
  CLSI MIC interpretation I (intermediate): 9.5%
  CLSI MIC interpretation R (resistant): 64.9%
  CLSI MIC interpretation S (susceptible): 25.7%
[8]; [34]
  MIC50: 8 µg/mL (≈ 20.9 µM)
  MIC90: > 32 µg/mL
[9]
  MIC: 0.12 µg/mL (≈ 0.313 µM)
[10]
  MIC: 4 µg/mL (≈ 10.4 µM)
[11]
  MIC: ≤ 0.03 µg/mL
[12]
  MIC: 32 µg/mL (≈ 83.4 µM)
[13]
  human protein binding: 2%
96 P. aeruginosa; [35]
  CLSI MIC interpretation I (intermediate): 11.5%
  CLSI MIC interpretation R (resistant): 67.7%
  CLSI MIC interpretation S (susceptible): 20.8%
96 P. aeruginosa; Pseudomonas aeruginosa (96), fixed concentration (μg/mL) in label
  MIC50: 16 µg/mL (≈ 41.7 µM)
96 P. aeruginosa; Pseudomonas aeruginosa, read-out: MIC50
  MIC50: 16 µg/mL (≈ 41.7 µM)
[14]
  MIC: 0.12 µg/mL (≈ 0.313 µM)
[15]
  MIC: 32 µg/mL (≈ 83.4 µM)
[16]
  MIC: 32 µg/mL (≈ 83.4 µM)
[17]
  MIC: ≤ 0.03 µg/mL
[18]; [36]
  CLSI MIC interpretation I (intermediate): 16.3%
  CLSI MIC interpretation R (resistant): 83.7%
  CLSI MIC interpretation S (susceptible): 0%
  MIC50: 8 µg/mL (≈ 20.9 µM)
  MIC90: >32 µg/mL
[18]; [37]
  CLSI MIC interpretation I (intermediate): 18.1%
  CLSI MIC interpretation R (resistant): 81.9%
  CLSI MIC interpretation S (susceptible): 0%
[18]; MEM-nonsusceptible Enterobacterales (127), cefiderocol 126 isolates, read-out: MIC50
  MIC50: 8 µg/mL (≈ 20.9 µM)
[18]; MEM-nonsusceptible Enterobacterales (127), cefiderocol 126 isolates, read-out: MIC90
  MIC90: > 32 µg/mL
[19]
  MIC: ≤ 0.03 µg/mL
[20]
  MIC: > 32 µg/mL
[21]
  MIC: 8 µg/mL (≈ 20.9 µM)
[22]; [38]
  CLSI MIC interpretation I (intermediate): 16.7%
  CLSI MIC interpretation R (resistant): 83.3%
  CLSI MIC interpretation S (susceptible): 0%
  MIC50: 8 µg/mL (≈ 20.9 µM)
  MIC90: 32 µg/mL (≈ 83.4 µM)
[22]; [39]
  CLSI MIC interpretation I (intermediate): 15.5%
  CLSI MIC interpretation R (resistant): 84.5%
  CLSI MIC interpretation S (susceptible): 0%
[22]; MEM-nonsusceptible Enterobacterales with serine-carbapenemases (58), read-out: MIC50
  MIC50: 8 µg/mL (≈ 20.9 µM)
[22]; MEM-nonsusceptible Enterobacterales with serine-carbapenemases (58), read-out: MIC90
  MIC90: 32 µg/mL (≈ 83.4 µM)
[23]
  MIC: 32 µg/mL (≈ 83.4 µM)
[24]; [40]
  CLSI MIC interpretation I (intermediate): 12.2%
  CLSI MIC interpretation R (resistant): 87.8%
  CLSI MIC interpretation S (susceptible): 0%
  MIC50: 16 µg/mL (≈ 41.7 µM)
  MIC90: >32 µg/mL
[24]; [41]
  CLSI MIC interpretation I (intermediate): 12.7%
  CLSI MIC interpretation R (resistant): 87.3%
  CLSI MIC interpretation S (susceptible): 0%
[24]; MEM-nonsusceptible Enterobacterales with metallo-carbapenemases (55), cefiderocol 54 isolates, read-out: MIC50
  MIC50: 16 µg/mL (≈ 41.7 µM)
[24]; MEM-nonsusceptible Enterobacterales with metallo-carbapenemases (55), cefiderocol 54 isolates, read-out: MIC90
  MIC90: > 32 µg/mL
[25]
  MIC: 0.06 µg/mL (≈ 0.156 µM)
[26]
  MIC: ≤ 0.03 µg/mL
[27]
  MIC: ≤ 0.03 µg/mL
[28]; [42]
  CLSI MIC interpretation I (intermediate): 11.1%
  CLSI MIC interpretation R (resistant): 50.2%
  CLSI MIC interpretation S (susceptible): 38.6%
[28]; [43]
  MIC50: 4 µg/mL (≈ 10.4 µM)
  MIC90: 32 µg/mL (≈ 83.4 µM)
[28]; read-out: MIC50
  MIC50: 4 µg/mL (≈ 10.4 µM)
[28]; read-out: MIC90
  MIC90: 32 µg/mL (≈ 83.4 µM)
[29]
  MIC: 0.06 µg/mL (≈ 0.156 µM)
[30]
  MIC: 0.06 µg/mL (≈ 0.156 µM)
